Test results published in patent US11090247B2, “Compositions for protecting the skin from heavy metals and formaldehyde” (FNG RESEARCH CO., LTD., priority 2016, dated 2021).

Columns and labels:
[1] = Removal test of heavy metals of active ingredients (pig skin, ICP-MS): Cu; details: contaminated pig skin
Protocol: (§1) (1) Preparation of Heavy Metal Contamination Sources and Pig Skin Samples
(§2) A pig was slaughtered, flayed and the bristle was shaved. The pig skin was cut to prepare 5*5 cm size of skin samples respectively.
(§3) The said skin samples were cleanly wiped with wet gauze, and then, added to 50 ml of methanol and extracted by shaking with ultrasonic for 60 min. 50 ml of methanol was further added and mixed. The pig skin samples were removed from the extracted solutions to prepare the test solutions.
(§4) The test solutions were analyzed for heavy metal components using an inductively coupled plasma mass spectrometer (ICP-MS, Xseries™ 2, Thermo Fisher Scientific, UK).

[2] = Removal test of heavy metals of active ingredients (pig skin, ICP-MS): Pb; details: contaminated pig skin
Protocol: as §1, §2, §3, §4

[3] = Removal test of heavy metals of active ingredients (pig skin, ICP-MS): Cd; details: contaminated pig skin
Protocol: as §1, §2, §3, §4

human skin = test: Skin irritation test of active ingredient (patch method, CTFA guidelines); format: in vivo; design: key to Degree of irritation: 0–0.1 none, 0.11–0.3 weak, 0.31–0.5 moderate, ≥0.51 strong irritation; details: 20 people, patch 24 hours; for Test result(number of subject) (+): (+): Apparent reddening than periphery; for Test result(number of subject) (++): (++): More reddened and swollen than periphery; for Test result(number of subject) (±): (±): slightly reddish than the periphery; for Test result(number of subject) (−): (−): No erythema or particularly no symptoms
Protocol: A total of 20 people (10 men and 10 women in their 20 s and 30 s) were tested for skin irritation using the patch method according to the guidelines of CTFA (The Cosmetic, Toiletry & Fragrance Association, Inc. Washington, D.C.).
A filter paper disk was placed in an 8 mm diameter, 10 panels of pin chamber.
After 24 hours, the pin chamber was removed, and skin conditions were visually observed.
[Criteria for Skin Irritation]
(−): No erythema or particularly no symptoms; (±): slightly reddish than the periphery; (+): Apparent reddening than periphery; (++): More reddened and swollen than periphery.
[Grade for Skin Irritation]
Degree of irritation 0-0.1: Grade I (unstimulated);
Degree of irritation 0.11-0.3: Grade II (weakly stimulated);
Degree of irritation 0.31-0.5: Grade III (moderately stimulated);
Degree of irritation 0.51 or more: Grade IV (strongly stimulated)

[4] = Formaldehyde removing ability test (GC); details: 2.0% formaldehyde solution; for Area (mAU*min) 30 min: formaldehyde GC area after 30 min; for Area (mAU*min) 30 min / Area (mAU*min) 180 min: 3 molar equivalents, room temperature; for Area (mAU*min) 180 min: formaldehyde GC area after 180 min; for Area (mAU*min) Initial: formaldehyde GC area, initial state, 3 molar equivalents of compound

| SMILES | Removal of Heavy metals Cu (%) ([1]; 0.1 wt % aqueous solution) | Removal of Heavy metals Cu (%) ([1]; 0.5 wt % aqueous solution) | Removal of Heavy metals Cu (%) ([1]; 1.0 wt % aqueous solution) | Removal of Heavy metals Pb (%) ([2]; 0.1 wt % aqueous solution) | Removal of Heavy metals Pb (%) ([2]; 0.5 wt % aqueous solution) | Removal of Heavy metals Pb (%) ([2]; 1.0 wt % aqueous solution) | Removal of Heavy metals Cd (%) ([3]; 0.1 wt % aqueous solution) | Removal of Heavy metals Cd (%) ([3]; 0.5 wt % aqueous solution) | Removal of Heavy metals Cd (%) ([3]; 1.0 wt % aqueous solution) | Degree of irritation (human skin; 0.1 wt %) | Grade (human skin; 0.1 wt %) | Test result(number of subject) (+) (human skin; 0.1 wt %) | Test result(number of subject) (++) (human skin; 0.1 wt %) | Test result(number of subject) (±) (human skin; 0.1 wt %) | Test result(number of subject) (−) (human skin; 0.1 wt %) | Degree of irritation (human skin; 0.5 wt %) | Grade (human skin; 0.5 wt %) | Test result(number of subject) (+) (human skin; 0.5 wt %) | Test result(number of subject) (++) (human skin; 0.5 wt %) | Test result(number of subject) (±) (human skin; 0.5 wt %) | other results |
| --- | --- | --- | --- | --- | --- | --- | --- | --- | --- | --- | --- | --- | --- | --- | --- | --- | --- | --- | --- | --- | --- |
| O=C(O)c1ccc(N(CCN(CCN(c2ccc(C(=O)O)o2)c2ccc(C(=O)O)o2)c2ccc(C(=O)O)o2)CCN(c2ccc(C(=O)O)o2)c2ccc(C(=O)O)o2)o1 [Embodiment 4, 5,5′,5″,5′″-(((ethane-1,2-diylbis((5-carboxyfuran-2-yl)azanediyl))bis(ethane-2,1-diyl))bis(azanetriyl))tetrakis(furan-2-carboxylic acid)] | 92.5% | 96.2% | 97.2% | 86.2% | 89.7% | 90.8% | 87.7% | 90.6% | 91.8% | 0 | I (Degree of irritation 0-0.1: Grade I (unstimulated)) | 0 | 0 | 0 | 20 | 0 | I (Degree of irritation 0-0.1: Grade I (unstimulated)) | 0 | 0 | 0 | Test result(number of subject) (−) (human skin; 0.5 wt %): 20; Degree of irritation (human skin; 1.0 wt %): 0.05; Grade (human skin; 1.0 wt %): I (Degree of irritation 0-0.1: Grade I (unstimulated)); Test result(number of subject) (+) (human skin; 1.0 wt %): 0; Test result(number of subject) (++) (human skin; 1.0 wt %): 0; Test result(number of subject) (±) (human skin; 1.0 wt %): 1; Test result(number of subject) (−) (human skin; 1.0 wt %): 19; Area (mAU*min) 30 min [4]: 0.173 mAU*min; Area (mAU*min) 180 min [4]: 0 mAU*min; Area (mAU*min) Initial [4]: 0.305 mAU*min |
| O=C(O)CN1CCN(CC(=O)O)CCN(CC(=O)O)CCN(CC(=O)O)CC1 [Embodiment 5, 2,2′,2″,2′″-(1,4,7,10-tetraazacyclododecane-1,4,7,10-tetrayl)tetraacetic acid] | 94.6% | 96.8% | 97.2% | 92.4% | 94.7% | 95.1% | 90.4% | 93.6% | 93.7% | 0 | I (Degree of irritation 0-0.1: Grade I (unstimulated)) | 0 | 0 | 0 | 20 | 0 | I (Degree of irritation 0-0.1: Grade I (unstimulated)) | 0 | 0 | 0 | Test result(number of subject) (−) (human skin; 0.5 wt %): 20; Degree of irritation (human skin; 1.0 wt %): 0.05; Grade (human skin; 1.0 wt %): I (Degree of irritation 0-0.1: Grade I (unstimulated)); Test result(number of subject) (+) (human skin; 1.0 wt %): 0; Test result(number of subject) (++) (human skin; 1.0 wt %): 0; Test result(number of subject) (±) (human skin; 1.0 wt %): 1; Test result(number of subject) (−) (human skin; 1.0 wt %): 19; Area (mAU*min) 30 min [4]: 0.179 mAU*min; Area (mAU*min) 180 min [4]: 0 mAU*min; Area (mAU*min) Initial [4]: 0.305 mAU*min |
| O=C(O)c1ccc(N2CCN(c3ccc(C(=O)O)cc3)CCN(c3ccc(C(=O)O)cc3)CCN(c3ccc(C(=O)O)cc3)CC2)cc1 [Embodiment 6, 4,4′,4″,4′″-(1,4,7,10-tetraazacyclododecane-1,4,7,10-tetrayl)tetrabenzoic acid] | 94.1% | 96.3% | 97.0% | 90.2% | 92.8% | 93.2% | 89.2% | 90.9% | 91.6% | 0 | I (Degree of irritation 0-0.1: Grade I (unstimulated)) | 0 | 0 | 0 | 20 | 0 | I (Degree of irritation 0-0.1: Grade I (unstimulated)) | 0 | 0 | 0 | Test result(number of subject) (−) (human skin; 0.5 wt %): 20; Degree of irritation (human skin; 1.0 wt %): 0.05; Grade (human skin; 1.0 wt %): I (Degree of irritation 0-0.1: Grade I (unstimulated)); Test result(number of subject) (+) (human skin; 1.0 wt %): 0; Test result(number of subject) (++) (human skin; 1.0 wt %): 0; Test result(number of subject) (±) (human skin; 1.0 wt %): 1; Test result(number of subject) (−) (human skin; 1.0 wt %): 19; Area (mAU*min) 30 min [4]: 0.183 mAU*min; Area (mAU*min) 180 min [4]: 0 mAU*min; Area (mAU*min) Initial [4]: 0.305 mAU*min |
| O=C(O)c1cncc(N2CCN(c3cncc(C(=O)O)c3)CCN(c3cncc(C(=O)O)c3)CCN(c3cncc(C(=O)O)c3)CC2)c1 [Embodiment 7, 5,5′,5″,5′″-(1,4,7,10-tetraazacyclododecane-1,4,7,10-tetrayl)tetranicotinic acid] | 93.8% | 95.1% | 96.0% | 90.8% | 93.1% | 93.6% | 87.9% | 89.4% | 90.7% | 0 | I (Degree of irritation 0-0.1: Grade I (unstimulated)) | 0 | 0 | 0 | 20 | 0 | I (Degree of irritation 0-0.1: Grade I (unstimulated)) | 0 | 0 | 0 | Test result(number of subject) (−) (human skin; 0.5 wt %): 20; Degree of irritation (human skin; 1.0 wt %): 0; Grade (human skin; 1.0 wt %): I (Degree of irritation 0-0.1: Grade I (unstimulated)); Test result(number of subject) (+) (human skin; 1.0 wt %): 0; Test result(number of subject) (++) (human skin; 1.0 wt %): 0; Test result(number of subject) (±) (human skin; 1.0 wt %): 0; Test result(number of subject) (−) (human skin; 1.0 wt %): 20; Area (mAU*min) 30 min [4]: 0.181 mAU*min; Area (mAU*min) 180 min [4]: 0 mAU*min; Area (mAU*min) Initial [4]: 0.305 mAU*min |
